Measurements as given in patent publication US5461057A, “Hydro-ethano-indeno-pyridines” (priority 1994, dated 1995).
pIC50: −log10 of the molar value. Where two headings read alike, the source gives them in different places.

Tests used:
[1] = tested on: histamine-induced dyspnea; assay: Bronchodilator (in vivo) Guinea Pig Dyspnea; conditions: oral, one hour before histamine challenge; for responders at 100 mg/kg / DYSP survivors: 100 mg/kg
Experimental: Unanesthetized guinea pigs (250-350 g), fasted overnight were placed in individual closed aerosol chambers which were connected to a Monoghan Ultrasonic nebulizer. The nebulizer can deliver an ultrasonic fog of uniform particles in a range of 1-8 microns. A 0.1% solution of histamine is aerosolized into the chambers causing the guinea pigs to develop dyspnea. The test drug was given orally one hour before the histamine challenge and the onset of dyspnea was recorded. Saline control animals developed dyspnea within 90-120 seconds of aerosol exposure. […] The data was expressed as the number tested over the number survived. The model was sensitive to bronchodilator and H1 antihistamine activity. Further information relating this test can be obtained from the following two publications which are hereby incorporated by reference: Dungan, K. W. and Lish, P. M. J Allergy 32:139-151 (1961). and Lish, P. M., Robbins, S. I. and Petres E. L. J. Pharmacol. Exp. Therap. 153 L 1538 (1966 ).

[2] = tested on: LOX human melanoma cell adhesion to human fibronectin; assay: LOX melanoma cell adhesion to fibronectin; format: cell-based; conditions: Homo sapiens, LOX; for inhibition at 10 µM: read-out: % Inhibition at 10 μM; for inhibition at 50 µM: read-out: % Inhibition at 50 μM; for pIC50: Table 4, 1 hour adhesion, read-out: LOX FN IC50
Experimental: (§1) Adhesion assays were run essentially as described previously (Pai et al., J. Biomed. Res. 2: 53, 1992). 96-well plates were coated with human fibronectin (140 ng/well), human vitronectin (75 ng/well), human collagen I (100 ng/well), human collagen IV (100 ng/well), human fibrinogen (1 μg/well), murine laminin (600 ng/well), or polylysine, and incubated overnight in a humidified 37° C. incubator. Excess fibronectin or other substrate was then removed and 0.2 ml of 2 mg/ml bovine serum albumin (BSA)in Dulbecco's phosphate-buffered saline (DPBS) was added to each well, incubated for 2 hours at 37° C., and removed. LOX human melanoma cells, M27 murine lung carcinoma cells or B16F10 mouse melanoma cells were detached from tissue culture flasks with RPMI medium containing 0.2M urea and 10 mM EDTA, and 0.18 ml of cells were added to each well to a final cell concentration of 1×10^5 cells/well. For inhibition studies 20 μl of 10× compound was added to the wells prior to cell addition. Cells were allowed to adhere for 1 hour at 37° C. The wells were then gently washed twice with 0.2 ml DPBS. The fluorescent dye calcein AM (Molecular Probes, Eugene Oreg.) in DPBS (0.1 ml of 1 μM) was added to each well, and the plates were incubated for 1 hour at room temperature. Adherent cells were quantitated by reading the fluorescence on a Cytofluor 2300 fluorescent plate reader (Millipore) at 485 nm excitation and 530 nm emission.
LOX FN-IC50 value for inhibition of adhesion of LOX human melanoma cells to fibronectin coated on a plastic surface.

[3] = Calcein cytotoxicity assay; format: cell-based; conditions: human, lox melanoma cells; 2 hours, calcein AM assay; read-out: 2 Hr Tox LD50
Experimental: LOX human melanoma cells were detached from tissue culture flasks with RPMI medium containing 0.2M urea and 10 mM EDTA, and 0.18 ml of cells were added to each well to a final cell concentration of 5×10^4 cells/well. 20 μl of 10× compound was added to the wells prior to cell addition. Cells were incubated with the compound at 37° C. for 1 hour or 5 hour as indicated. Calcein AM in DPBS (0.02 ml of 5 μM) was added to each well, and the plates were incubated for an additional 1 hour at room temperature. Viable cells were quantitated by reading the fluorescence on a Cytofluor 2300 fluorescent plate reader at 485 nm excitation and 530 nm emission.

[4] = tested on: LOX human melanoma cell adhesion to polylysine; assay: LOX melanoma cell adhesion to polylysine; format: cell-based; conditions: read-out: Poly Lys IC50
Experimental: as §1

pulmonary resistance = assay: Pulmonary Resistance in the Anesthetized Rat; format: in vivo; conditions: 0.5 mpk, i.v., mean of 5 animals, % decrease in pre-drug baseline resistance; for inhibition in vivo at 0.5 mg/kg: Rattus norvegicus, iv, read-out: Pulmonary Resistance in Rats, % Inhibition
Experimental: Rats (400-500 g) anesthetized with dialurethane were surgically prepared with tracheal and esophageal catheters. These catheters were connected to pressure transducers for recording of air flow, tracheal and esophageal pressures. These pressures formed the basis for measurement of pulmonary resistance. Inhibition of pulmonary resistance is a reflection of bronchodilation.
All compounds were tested i. v. in 5 separate animals. All data are expressed in % decrease in the pre-drug baseline resistance and each number given is the mean of the 5 animals tested.
The model is sensitive to bronchodilator activity.
Further information relating this test can be obtained from the following publications which are hereby incorporated by reference: Comroe et al, J. Appl. Physio. 4:439-44 (1959); Dungan et al J. Pharmacol. Exp. Therap. 164:290-301(1968); and Mead, J. et al. J. Appl. Physio. 5:779-796 (1953).

[5] = Cavia porcellus, 1 h, read-out: DYSP survivors (converted)

Row | Compound | responders at 100 mg/kg [1, 5] | inhibition at 10 µM [2] | inhibition at 50 µM [2] | DYSP survivors [1] | further results
1 | COc1ccc(C2(O)c3c(Cl)cccc3C3C4CCC(CC32)N4C)cc1 (centres unmarked) [BBB] | 33.3% | -11.8% | 5.6% |  | 
2 | CN1C2CCC1C1=C(C2)C(c2ccccc2)c2cc(O)ccc21 (centres unmarked) [BB] |  |  | 6.5% |  | inhibition at 10 µM ([2]; 1 h): -38.2%
3 | COc1ccc(C2(O)c3cc(F)ccc3C3C4CCC(CC32)N4C)cc1 (centres unmarked) [CCC] | 66.7% |  |  |  | 
4 | CN1C2CCC1C1C(=C(c3ccc(F)cc3)c3cc(Cl)ccc31)C2 (centres unmarked) [Compound E] |  | 49.5% | 100% | 0/3 | pIC50 [2]: 5.21; CC50 at 2 h [3]: 21.8 µM; pIC50 [4]: 4.34
5 | CN1C2CCC1C1C(=C(c3cccc(F)c3)c3cc(F)ccc31)C2 (centres unmarked) [Compound G] |  | 38.1% | 101% | 1/3 | pIC50 [2]: 5.28; CC50 at 2 h [3]: 29.5 µM; pIC50 [4]: 4.20
6 | CN1C2CCC1C1C(=C(c3ccc(F)cc3)c3cc(F)ccc31)C2 (centres unmarked) [Compound H] |  | 37.5% | 101% | 1/3 | Pulmonary Resistance in Rats, % Inhibition (pulmonary resistance): 20%; pIC50 [2]: 5.19; CC50 at 2 h [3]: 36.9 µM; pIC50 [4]: 4.63
7 | CN1C2CCC1C1C(=C(c3cccc(Cl)c3)c3ccccc31)C2 (centres unmarked) [D] |  | 56.5% | 101% | 1/3 | pIC50 [2]: 5.13; CC50 at 2 h [3]: 34.6 µM; pIC50 [4]: 4.14
8 | CN1C2CCC1C1=C(C2)C(c2cccs2)c2ccccc21 (centres unmarked) [GGG] |  | -27.6% | 64.4% |  | 
9 | COc1ccc(C2c3ccccc3C3C2CC2CCC3N2C)cc1 (centres unmarked) [GG] |  | 7.1% | 39.1% | 2/3 | 
10 | CN1C2CCC1C1c3ccccc3C(O)(c3ccc(Cl)cc3)C1C2 (centres unmarked) [HH] | 33.3% | 2.5% | 36.9% |  | 
11 | CN1C2CCC1C1c3ccc(Cl)cc3C(O)(c3ccc(F)cc3)C1C2 (centres unmarked) [II] | 100% | 5.4% | 34.8% |  | 
12 | CN1C2CCC1C1C(=C(c3ccccc3)c3cc(F)ccc31)C2 (centres unmarked) [I] |  | 35.6% | 100% | 1/3 | pIC50 [2]: 5.12; CC50 at 2 h [3]: 55.9 µM; pIC50 [4]: 4.64
13 | CSc1ccc(C2(O)c3ccccc3C3C4CCC(CC32)N4C)cc1 (centres unmarked) [KK] |  | 7.2% | 32.8% |  | responders at 50 mg/kg [1, 5]: 0%
14 | CN1C2CCC1C1c3cc(Cl)ccc3C(O)(c3ccc(F)cc3)C1C2 (centres unmarked) [LL] |  | -12.2% | 26.6% |  | 
15 | CN1C2CCC1C1C(=C(c3ccccc3)c3ccc(F)cc31)C2 (centres unmarked) [M] |  | 18.4% | 99.6% | 0/3 | pIC50 [2]: 4.90; CC50 at 2 h [3]: 39.8 µM; pIC50 [4]: 4.14
16 | CN1C2CCC1C1c3ccccc3C(O)(c3cccc(C(F)(F)F)c3)C1C2 (centres unmarked) [NN] |  | 9.4% | 24.7% |  | responders at 50 mg/kg [1, 5]: 0%
17 | Cc1ccc(C2(O)c3ccccc3C3C4CCC(CC32)N4C)cc1 (centres unmarked) [OO] | 33.3% | 6.6% | 23.7% |  | inhibition in vivo at 0.5 mg/kg (pulmonary resistance): -18%
18 | CN1C2CCC1C1C(=C(c3cccc(F)c3)c3ccccc31)C2 (centres unmarked) [O] |  | 5.2% | 97.1% | 0/3 | pIC50 [2]: 4.95; CC50 at 2 h [3]: 72 µM; pIC50 [4]: 3.89
19 | CN1C2CCC1C1c3ccccc3C(O)(c3cccc(Cl)c3)C1C2 (centres unmarked) [QQ] |  | 9.2% | 21.1% |  | responders at 50 mg/kg [1, 5]: 33.3%; inhibition in vivo at 0.5 mg/kg (pulmonary resistance): -30%
20 | CN1C2CCC1C1c3ccccc3C(O)(c3cccc(F)c3)C1C2 (centres unmarked) [RR] | 66.7% | 13.8% | 17.6% |  | responders at 50 mg/kg [1, 5]: 0%; inhibition in vivo at 0.5 mg/kg (pulmonary resistance): 28%
21 | CN1C2CCC1C1c3ccccc3C(O)(c3ccccc3C(F)(F)F)C1C2 (centres unmarked) [TT] |  | 16.7% | 16.1% |  | responders at 50 mg/kg [1, 5]: 0%; inhibition in vivo at 0.5 mg/kg (pulmonary resistance): 7%
22 | CN1C2CCC1C1c3cc(Cl)ccc3C(O)(c3ccccc3)C1C2 (centres unmarked) [VV] | 100% | 0.9% | 15.9% |  | 
23 | CN1C2CCC1C1c3ccccc3C(O)(c3ccc4c(c3)OCO4)C1C2 (centres unmarked) [WW] |  | 1.2% | 11.9% |  | inhibition in vivo at 0.5 mg/kg (pulmonary resistance): 39%
24 | COc1ccc(C2(O)c3cc(Cl)ccc3C3C4CCC(CC32)N4C)cc1 (centres unmarked) [XX, 7-Chloro-5-(p-methoxyphenyl)-2-methyl-1,3-ethano-1,2,3,4,4a,9b-hexahydro-5H-indeno[1,2-c]pyridin-5-ol] | 100% | -23.1% | 8.1% |  | responders at 10 mg/kg ([1]; Cavia porcellus, 1 h, 10 mg/kg, read-out: DYSP survivors (converted)): 66.7%; responders at 20 mg/kg ([1]; Cavia porcellus, 1 h, 20 mg/kg, read-out: DYSP survivors (converted)): 66.7%; responders at 50 mg/kg [1, 5]: 100%
25 | CN1C2CCC1C1c3ccc(Cl)cc3C(O)(c3ccccc3)C1C2 (centres unmarked) [YY] | 66.7% | -14.6% | 7.4% |  | responders at 50 mg/kg [1, 5]: 100%
26 | COc1ccc(C2(O)c3ccc(Cl)cc3C3C4CCC(CC32)N4C)cc1 (centres unmarked) [ZZ] | 33.3% | -9.7% | 7% |  | 
